Data from patent US10745454B2, “Method of synthesizing antagonist peptides for cell growth” (priority 2018, dated 2020).

Columns and labels:
[1] = biological target: T1, bFGFR-1 (receptor) (Homo sapiens, UniProt P11362); experiment: Competitive binding assay with bFGFR-1 in HUVECs (immunofluorescence); settings: peptide 1000-2000 ng/ml overnight
T1 construct: with bFGFR-1 (receptor) in Human Umbilical Vein Endothelial Cells (HUVECs); endogenous in cells; host or cells: HUVEC (Human Umbilical Vein Endothelial Cells)
T1 sequence (P11362 22-822): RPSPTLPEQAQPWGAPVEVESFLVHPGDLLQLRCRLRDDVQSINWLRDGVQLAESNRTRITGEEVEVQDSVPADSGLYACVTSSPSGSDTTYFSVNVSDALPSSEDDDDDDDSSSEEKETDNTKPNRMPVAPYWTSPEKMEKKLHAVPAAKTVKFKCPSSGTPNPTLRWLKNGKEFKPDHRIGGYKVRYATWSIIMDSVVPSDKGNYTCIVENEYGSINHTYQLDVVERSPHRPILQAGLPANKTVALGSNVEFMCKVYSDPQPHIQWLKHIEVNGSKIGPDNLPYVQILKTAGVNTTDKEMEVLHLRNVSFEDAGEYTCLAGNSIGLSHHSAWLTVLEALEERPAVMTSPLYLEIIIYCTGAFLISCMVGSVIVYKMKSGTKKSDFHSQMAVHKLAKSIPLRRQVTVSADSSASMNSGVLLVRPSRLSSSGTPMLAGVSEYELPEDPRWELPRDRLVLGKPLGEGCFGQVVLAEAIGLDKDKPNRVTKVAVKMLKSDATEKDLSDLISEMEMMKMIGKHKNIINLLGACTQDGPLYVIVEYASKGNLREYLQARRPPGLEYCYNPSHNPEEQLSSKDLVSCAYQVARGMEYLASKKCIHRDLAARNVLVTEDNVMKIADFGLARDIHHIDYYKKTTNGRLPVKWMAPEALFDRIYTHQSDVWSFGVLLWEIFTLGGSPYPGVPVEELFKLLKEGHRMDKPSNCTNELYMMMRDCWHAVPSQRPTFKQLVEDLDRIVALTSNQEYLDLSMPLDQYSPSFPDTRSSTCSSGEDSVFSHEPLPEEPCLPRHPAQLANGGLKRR
Experimental: Binding Assay—To assess competitive binding assay of bFGF antagonist, Human Umbilical Vein Endothelial Cells(HUVECs) are cultured in 96-well plates (5000 cells/well) with DMEM and 5% fetal bovine serum (FBS) incubated at 37° C. for overnight. After 24 h, the media in the 96-well plates is changed with DMEM without FBS and the cells are treated (except the control 96-well plates) with 1000-2000 ng/ml the peptides at 37° C. for overnight. The cells are fixed by 4% paraformaldehyde at room temperature for 5-10 min. After 5-10 minutes the cells are rinsed with phosphate buffer saline (PBS), permeabilized with PBS+0.3% Triton X-100. The […] with a mixture comprising 10% normal goat serum, bovine serum albumin (BSA) 1% PBST for 20 minutes in the room temperature. After 20 minutes the cells are subjected to anti-FGFR-1 (5000 ng/ml, Ab10646) with FITC-secondary (Ab6717) antibody and stained with propidium iodide (Sigma Aldrich, USA, P4170) (1 μg/ml) for nuclear staining. The cell-binding is analyzed by NIH Image J software.

[2] = test system: ovarian cancer cell line SKOV3; experiment: bFGF-induced SKOV3 proliferation assay (MTT); assay type: cell-based, human; settings: for bFGF-induced proliferation of SKOV3: hr-bFGF, peptide 25-1000 ng/ml, 5-6 days
Experimental: Cell Proliferation Assay—To analyze the ability of basic fibroblast growth factor (bFGF) antagonist peptide to inhibit the bFGF-induced cell proliferation, the ovarian cell line SKOV3 is utilized. The SKOV3 cell line is found to be dependent on bFGF for cellular proliferation. For cell culture, SKOV3 cells are maintained in DMEM supplemented with 5% FBS, 1% streptomycin, penicillin, […] glutamine and is mycoplasma free.
For estimating the anti-proliferative activity of bFGF, SKOV3 is plated at 1×10^4 cell per well in a 24 well dish in 1 ml DMEM, the cells are maintained in DMEM and treated with human recombinant bFGF (hr-bFGF) (0-100 ng/ml) alone and in combination with different concentration of the antagonistic peptide (25-1000 ng/ml) every other day for total 5-6 days. The experiment is terminated when cells are in confluence. The MTT assay is performed. The absorbance is determined at 540 nm. The results are expressed as the mean of triplicate experiments (+SD). One-way analysis of variance is used to determine significance.

[3] = test system: HUVECs; experiment: Matrigel tube formation assay, bFGF antagonist; assay type: cell-based, human; settings: peptide 2000 ng/ml
[4] = test system: 4T1 tumor; experiment: Histopathological staining of angiogenesis markers CD31 and CD34 in 4T1 tumors of treated mice; assay type: in vivo, BALB/c mice; settings: 4T1 tumor tissue; i.p. daily, two weeks
Experimental: In vivo Tumor Growth Regression-Animal studies are conducted according to relevant national and international guidelines of the Weatherall report and Institutional Animal Care and Use Committee (IACUC) of Tehran University of Medical Sciences. The tumors induced in the female BALB/c mice (5 weeks old) are purchased from the Laboratory Animal Center of Iran Pasteur Institute and maintained under 12 h dark and light cycle. The 4T1 tumor model mouse are sterilized and established from the breast cancer bearing BALB/c mice by a standard protocol. The 4T1 tumor model mouse are prepared by cutting the tumor into pieces of <0.3 cm3. […] The tumor volume is measured every two days by a digital Vernier caliper (Mitutoyo, japan), using the following formula: v=a2×b×0.52 (where “a” is the shortest and “b” is the longest diameter).
Histopathological analyses—The excised tumor tissues are fixed in formalin (4%), embedded in paraffin, sectioned and stained against CD31, CD34, Ki-67, P53, Bcl-2 and TUNEL. […] To count microvessels of the murine breast cancer tissue, the 5 randomly selected vascularized areas are counted under scale bar 100 and 20 μm. The microvascular density (MVD) of the tumor is measured and evaluated by the standard protocol. The microvessels are manually counted on the images at scale bar of 20 μm. […]

[5] = test system: PI3K/AKT and MAPK/ERK1/2 pathways; experiment: Quantitative Western blot of PI3K/AKT and MAPK/ERK1/2 activation in 4T1 tumor extracts; assay type: in vivo, murine
Experimental: In vivo Tumor Growth Regression-Animal studies are conducted according to relevant national and international guidelines of the Weatherall report and Institutional Animal Care and Use Committee (IACUC) of Tehran University of Medical Sciences. The tumors induced in the female BALB/c mice (5 weeks old) are purchased from the Laboratory Animal Center of Iran Pasteur Institute and maintained under 12 h dark and light cycle. The 4T1 tumor model mouse are sterilized and established from the breast cancer bearing BALB/c mice by a standard protocol. The 4T1 tumor model mouse are prepared by cutting the tumor into pieces of <0.3 cm3. The tumor pieces are subcutaneously transplanted into the left flank of the mouse under ketamine (100 mg/kg, i.p.) and xylazine (10 mg/kg, i.p.) anesthesia. The mouse carrying tumors with a tumor size reaching to 400 mm3 are randomized and divided into groups. Each group of tumor induced mice comprises 6 mouse. The first group is treated with vascular endothelial growth factor (VEGF). The second group is treated with phosphate buffer saline. The first group or treated groups receives daily 1, 2.5 and 10 mg/kg i.p. of VEGF-antagonistic peptides compared to PBS control group for two weeks. The tumor volume is measured every two days by a digital Vernier caliper (Mitutoyo, japan), using the following formula: v=a2×b×0.52 (where “a” is the shortest and “b” is the longest diameter).
The tumor tissues from control and peptide-treated (cultured cells or mice) are lysed with RIPA lysis buffer. […] Protein concentrations are assessed by Bradford assay. […]
The premium nitrocellulose western blotting membranes are washed with TBST and incubated with horseradish peroxidase-conjugated goat anti-mouse IgG secondary antibody. […] The quantitative analysis of protein expression to the reference protein, repeated at least three times, is performed using ImageJ. […]

[6] = test system: endothelial cell; settings: Alzheimer's disease context; cited from earlier work
[7] = test system: adipose tissue; settings: mice; cited from earlier work
[8] = listed as bFGF antagonistic peptide
[9] = 4T1 mammary carcinoma tumor tissues

Molecule: 2HN-Leu119-Lys120-Arg121-Thr122-Gly123-Gln124-Tyr125-Lys126-Leu127-COOH (H-LKRTGQYKL-OH; listed as Homo sapiens) [Seq. ID No. 5, antagonist of bFGF, residues 119-127 of bFGF]
- binding to bFGFR-1 [1]: recognizes bFGFR
- binding to bFGFR-1 [1, 8]: recognizes and binds
- bFGF-induced proliferation of SKOV3 [2]: suppressing bFGF-induced proliferation
- bFGF-induced proliferation of SKOV3 ([2]; listed as bFGF antagonist peptide): inhibits the bFGF-induced proliferation of ovarian cancer cell line SKOV3 in a dose-dependent manner
- bFGF-induced proliferation of SKOV3 [2, 8]: inhibit the proliferation
- SKOV3 cell proliferation at 400 ng/ml peptide ([2]; peptide 400 ng/ml): reduced
- anti-angiogenic activity, Matrigel assay [3]: inhibits the angiogenesis process
- anti-angiogenic effect, staining of angiogenesis marker CD31 [4]: inhibits the angiogenesis
- anti-angiogenic effect, staining of angiogenesis marker CD34 [4]: inhibits the angiogenesis
- AKT phosphorylation [5, 9]: able to block
- ERK1/2 phosphorylation [5, 9]: able to block
- difference in p-AKT or p-ERK inhibition levels between dosages ([5]; dosages 1 and 10 mg/kg): no significant difference

Molecule: CN(C)c1ccc(/C=C2\C(=O)Nc3ccccc32)cc1 [SU 4312]
- vessel formation [6]: could be blocked

Molecule: CO[C@@H]1[C@H](OC(=O)NC(=O)CCl)CC[C@]2(CO2)[C@H]1[C@@]1(C)O[C@@H]1CC=C(C)C [TNP-470]
- diet-induced and genetic obesity [7]: able to prevent
- vascularity in the adipose tissue [7]: reduced
